Experimental data from patent US5616606A, “Oligopeptide antiretroviral agents” (priority 1995, dated 1997).
“And” between values parts separate entries of the source, which are not always exact repeats. Identical values can stand only once.

Columns and labels:
SC-1 cells = assay: toxicity TD50 reported with the anti-MLV test; conditions: Table IV
2.2.15 cells = assay: toxicity analysis, neutral red dye uptake in 2.2.15 cells; conditions: triplicate, ± standard deviation
HBV [1] = assay: inhibition of HBV DNA replication in 2.2.15 cell cultures; assay type: cell-based; conditions: for INT[…] DNA MONO. / INT[…] DNA RI: 24 hours following the 9th day of treatment; for INT[…] DNA MONO. / INT[…] DNA RI / HBV VIRION DNA DAY 0 / HBV VIRION DNA DAY 6 / HBV VIRION DNA DAY 9: single well
HBV [2] = conditions: 9 μM; relative to average levels in untreated cells; typically observed (Korba and Milman, 1991); cited from earlier work
[3] = system: Moloney murine leukemia virus (MLV); assay: anti-Moloney murine leukemia virus (MLV) plaque test; assay type: cell-based; conditions: anti-MLV plaque count

## Nc1ccn([C@H]2CC[C@@H](CO)O2)c(=O)n1 [DDC, 2,3'-dideoxycytosine, reference compound]
SC-1 cells
  Toxicity, TD50: > 100.00 ug/mL^-1
2.2.15 cells; 10 μg/ml
  NEUTRAL RED DYE UPTAKE: 99 ± 1 % OF CONTROL
2.2.15 cells; 30 μg/ml
  NEUTRAL RED DYE UPTAKE: 100 ± 1 % OF CONTROL
2.2.15 cells; 100 μg/ml
  NEUTRAL RED DYE UPTAKE: 89 ± 3 % OF CONTROL
2.2.15 cells; 300 μg/ml
  NEUTRAL RED DYE UPTAKE: 17 ± 2 % OF CONTROL
HBV [1]; 10 μM, listed as 2',3'-ddC
  INT[…] DNA MONO.: 2.5 pg/μg CELL DNA and 2.0 pg/μg CELL DNA
  INT[…] DNA RI: 9 pg/μg CELL DNA and 7 pg/μg CELL DNA and 8 pg/μg CELL DNA and 5 pg/μg CELL DNA
  HBV VIRION DNA DAY 0: 63 pg/ml CULTURE MEDIUM and 66 pg/ml CULTURE MEDIUM and 78 pg/ml CULTURE MEDIUM and 68 pg/ml CULTURE MEDIUM
  HBV VIRION DNA DAY 6: 43 pg/ml CULTURE MEDIUM and 47 pg/ml CULTURE MEDIUM and 54 pg/ml CULTURE MEDIUM and 45 pg/ml CULTURE MEDIUM
  HBV VIRION DNA DAY 9: 7 pg/ml CULTURE MEDIUM and 5 pg/ml CULTURE MEDIUM and 6 pg/ml CULTURE MEDIUM and 8 pg/ml CULTURE MEDIUM
HBV [1]; 50 μM, listed as 2',3'-ddC
  INT[…] DNA MONO.: 1.2 pg/μg CELL DNA and 1.4 pg/μg CELL DNA and 1.8 pg/μg CELL DNA and 1.7 pg/μg CELL DNA
  INT[…] DNA RI: 2 pg/μg CELL DNA and 1 pg/μg CELL DNA
  HBV VIRION DNA DAY 0: 57 pg/ml CULTURE MEDIUM and 51 pg/ml CULTURE MEDIUM and 58 pg/ml CULTURE MEDIUM and 59 pg/ml CULTURE MEDIUM
  HBV VIRION DNA DAY 6: 26 pg/ml CULTURE MEDIUM and 28 pg/ml CULTURE MEDIUM and 30 pg/ml CULTURE MEDIUM and 20 pg/ml CULTURE MEDIUM
HBV [1]; 50 μM, zero = undetectable, cutoff 0.1 pg/ml
  HBV VIRION DNA DAY 9: 0 pg/ml CULTURE MEDIUM
HBV [1]; tested at 50 and 10 μM, compared with 2',3'-ddC
  effect on HBV replication (in words): significant depressions of HBV DNA replication
HBV [2]
  depression of HBV RI: 90%
[3]
  Activity, MIC50: 0.74 µg/mL
